Reference: PMC9421654, “Discovery of Substituted Di(pyridin-2-yl)-1,2,4-thiadiazol-5-amines as Novel Macrofilaricidal Compounds for the Treatment of Human Filarial Infections” (Journal of Medicinal Chemistry, 2022)
In brackets after ≈: the same amount, converted by molar mass. Read-outs that look alike come from different tables or passages of the source.

How the values were obtained:
[1] = molecular target: T1, P-gp (MDR1) (Homo sapiens, UniProt P08183); assay: MDCK/MDR1 permeability and efflux; type: in vitro ADME; settings: dog
T1 construct: expressed in transfected cells; host or cells: MDCK (Madin Darby canine kidney) cells
T1 sequence (P08183 whole entry): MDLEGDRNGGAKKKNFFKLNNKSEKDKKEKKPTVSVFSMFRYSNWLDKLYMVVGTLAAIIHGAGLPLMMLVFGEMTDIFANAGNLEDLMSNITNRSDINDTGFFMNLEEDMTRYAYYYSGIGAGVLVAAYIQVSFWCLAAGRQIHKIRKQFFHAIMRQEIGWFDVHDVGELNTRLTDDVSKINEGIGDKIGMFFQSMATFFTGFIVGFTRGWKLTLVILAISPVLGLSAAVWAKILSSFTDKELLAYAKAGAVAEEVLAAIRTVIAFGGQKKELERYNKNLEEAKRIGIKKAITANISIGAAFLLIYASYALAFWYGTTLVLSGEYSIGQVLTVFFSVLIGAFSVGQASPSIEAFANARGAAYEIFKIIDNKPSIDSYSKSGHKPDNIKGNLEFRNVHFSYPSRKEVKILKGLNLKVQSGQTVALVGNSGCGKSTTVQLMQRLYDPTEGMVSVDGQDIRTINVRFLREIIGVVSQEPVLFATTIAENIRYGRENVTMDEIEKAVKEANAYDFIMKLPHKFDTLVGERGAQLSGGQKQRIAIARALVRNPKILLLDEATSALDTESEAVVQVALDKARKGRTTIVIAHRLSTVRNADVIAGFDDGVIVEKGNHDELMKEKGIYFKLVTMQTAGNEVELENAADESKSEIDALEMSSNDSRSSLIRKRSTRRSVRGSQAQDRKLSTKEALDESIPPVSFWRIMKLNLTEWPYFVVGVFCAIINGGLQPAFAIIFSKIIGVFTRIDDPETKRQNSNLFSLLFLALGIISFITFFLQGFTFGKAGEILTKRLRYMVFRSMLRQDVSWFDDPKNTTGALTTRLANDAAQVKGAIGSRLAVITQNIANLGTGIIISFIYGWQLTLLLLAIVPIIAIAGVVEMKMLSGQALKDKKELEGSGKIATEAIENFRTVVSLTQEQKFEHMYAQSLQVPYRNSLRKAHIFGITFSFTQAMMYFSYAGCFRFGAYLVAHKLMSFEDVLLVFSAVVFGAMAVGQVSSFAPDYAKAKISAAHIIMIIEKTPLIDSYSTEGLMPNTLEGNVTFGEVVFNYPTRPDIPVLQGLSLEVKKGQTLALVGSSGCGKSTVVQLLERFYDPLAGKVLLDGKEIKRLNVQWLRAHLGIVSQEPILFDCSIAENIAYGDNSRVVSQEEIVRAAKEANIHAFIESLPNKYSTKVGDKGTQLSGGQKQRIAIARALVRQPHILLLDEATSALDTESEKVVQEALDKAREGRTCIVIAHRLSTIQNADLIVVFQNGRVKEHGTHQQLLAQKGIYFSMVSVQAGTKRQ
Description: Our approach was to target compounds with efflux ratio (ER) >2.5 in the MDCK cell line transfected with MDR1 (multidrug resistance-1 transfected Madin Darby canine kidney cell line). […] Our goal was to impart structural elements designed to impart Pgp recognition.

[2] = tested on: O. gutturosa adult male worms; assay: O. gutturosa adult worm ex vivo assay, motility; type: cell-based, Onchocerca gutturosa; settings: Onchocerca gutturosa
Protocol: (§1) Activity against O. gutturosa adult male worms was determined using reported procedures.[7] The EC50 values were calculated using Microsoft Office Excel (2010) data analysis software. The tested compound is considered active when a motility reduction of ≥50% is observed by comparison to the untreated controls. O. gutturosa adult male worms were obtained postmortem from freshly slaughtered cattle. The worms were dissected from the nuchal ligament connective tissues of naturally infected cattle in Gambia, West Africa; the material was purchased from the International Trypanotolerance Centre, Banjul, from local butchers for use in this study. The adult worms were transferred individually to each well of a sterile 24-well (2 mL) plate (Thermo Fisher Scientific, UK) and maintained for at least 24 h in culture before use. The medium used was a minimum essential medium (MEM) with Earl’s salts and L-glutamine (Life Technologies Ltd., UK) supplemented with 10% heat inactivated newborn calf serum (Life Technologies Ltd., UK), 200 units/mL penicillin, 200 μg/mL streptomycin, and 0.5 μg/mL amphotericin B (Life Technologies Ltd., UK). Only normally active worms were used for the test, and all assays were conducted at 37 °C and 5% CO2. The positive control drug used was Immiticide (melarsomine dihydrochloride, Merial, USA). Known amounts of compounds were solubilized in 1 mL of DMSO. All stock solutions were allowed to stand at room temperature prior to use. The test items (four worms/drug concentration) were compared to untreated controls (six worms) and the positive control (two worms/drug concentration). Drug efficacy was assessed by the measurement of mean worm motility scores on a scale of 0 (immotile) to 10 (maximum) every 24 h, terminating at 120 h, using an Olympus inverted microscope. The results are reported as a percentage of the maximum score obtainable (100%) by calculating the motility index scores. The test drug is considered active when a motility reduction of ≥50% is observed by comparison to the untreated controls. […] In addition, biochemical evaluation of worm viability was assessed using MTT/formazan colorimetry. The MTT assay was carried out after the last motility reading (120 h). Single intact worms were placed in each well of a 48-well plate (Thermo Fisher Scientific, UK) containing 0.5 mL of 0.5 mg/mL MTT (Sigma, UK) in PBS solution and then incubated for 30 min at 37 °C. The worms were removed, blotted carefully, and individually transferred to separate wells of a 96-well microtiter plate, each containing 200 μL of DMSO to solubilize the formazan. After 1 h, the plate was gently agitated to disperse the color evenly and the absorbance value (optical density, OD) of the resulting formazan solution was determined at 490 nm using an absorbance microplate reader (Biotek ELx800, Thermo Fisher Scientific, UK). The results are expressed as the mean OD per drug concentration. Inhibition of formazan formation is correlated with worm damage or death.
Data S1. Onchocerca gutturosa adult male worms EC 50 Curves
Plotted using Graph Pad Prism 7.03, least square original fit, sigmoidal, 4PL
The measurement of mean worm motility every 24 h, terminating at 120 h, serial 1 in 4 drug dilutions to find
activity endpoint and produce EC50 values (geomean, n=2) for motility reduction. (4 worms per drug […]

[3] = tested on: O. gutturosa adult male worms; assay: O. gutturosa adult worm ex vivo assay, MTT/formazan viability; type: cell-based, Onchocerca gutturosa; settings: supplement, SD in brackets in the PDF table, read-out: O. gutturosa EC50 (uM) MTT viability inhibition
Protocol: as §1

[4] = LogD measurement (octanol-water); type: physicochemical
Protocol: LogD Measurement: Measurement of octanol-water distribution coefficient of samples using a […]
stock solutions for plating. Aqueous Phase: 100mM Buffer, pH=7.4 (0.1M Potassium phosphate buffer, diluted from Sigma 1M P3619-1GA to 0.1 M with MilliQ water), pH=2.2 (0.1M- NaCl pH adjusted with 0.1N HCL), pH=6.8 (0.1M - KH2PO4/K2HPO4), pH=5 (4 .04g of NaOH (Pellets), 8.65g of Glacial Acetic Acid, 11.874g of NaCl. In in 1 liter water. Adjusted to pH to 5 with either 1N NaOH or 1N HCl); Organic Phase: 1-Octanol (O021). Sample Concentration:
1000uM, […] 10 mM DMSO stock solution diluted in […] of organic Phase and […] of aqueous Phase. DMSO content: 10%. The controls were plated from the standard 10 mM DMSO stock and run on the standard concentration ([…]) range of the assay. Incubation time:
Sonication for 30 minutes followed by 24 hours shaking at 750 rpm in 96 deep well plate (VWR

[5] = Kinetic solubility measurement; type: physicochemical; settings: 10 mM DMSO stock solutions
Protocol: Kinetic Solubility Measurement: The standard kinetic solubility assay runs on […] concentration range using 10 mM DMSO stock solutions for plating. Single point calibration assay runs in duplicates. Concentration of standards: […] DMSO solutions prepared by diluting 10 mM stock, solution with DMSO. Concentration of samples: 200 µM, 4 µl 10 mM DMSO stock solution diluted with the appropriate buffer to […]. DMSO content:
2%. Buffers: pH=7.4 (0.1M Potassium phosphate buffer, diluted from Sigma 1M P3619-1GA to 0.1 M with MilliQ water), pH=2.2 (0.1M- NaCl pH adjusted with 0.1N HCL), pH=6.8 (0.1M - KH2PO4/K2HPO4), pH=5 (4 .04g of NaOH (Pellets), 8.65g of Glacial Acetic Acid, 11.874g of NaCl. In in 1 liter water. Adjusted to pH to 5 with either 1N NaOH or 1N HCl). The controls were plated from the standard 10 mM DMSO stock and run on the standard concentration (200µM) range of the assay. Incubation time: 24 hours shaking at […] in Millipore Multiscreen HTS filter plate for Aqueous Solubility Assay (MSSLBPC50), on room temperature.
After incubation time filtration with positive pressure manifold was performed. […]

[6] = tested on: THLE-2 cells; assay: THLE-2 cytotoxicity assay (ATP); settings: Homo sapiens, THLE-2, read-out: THLE IC50
Protocol: In vitro cytotoxicity of select compounds was tested in a “normal” proliferating transformed human liver epithelial (THLE-2) cell line.[35] Compounds were incubated in THLE-2 cells for 24 and 72 h, and adenosine triphosphate (ATP) levels were used as an indicator of cell viability.
THLE-2 Cytotoxicity Assay: THLE-2 cells (ATCC, catalog #CRL-2706) were plated in LHC-8 Media (Invitrogen, catalog #12679015) supplemented with fetal bovine serum (GE, catalog #SH30088.03), 70 ng/mL phosphoethanolamine (Sigma, catalog #P0503), 5 ng/mL EGF (Sigma, catalog #E9644), 1X penicillin/streptomycin (Gibco, catalog #15140148), and 1X glutamine (Invitrogen, catalog #25030024) in 384-well clear-bottom, black walled plates at a density of 3750 cells/well (15μL/well). After plating, cells were incubated overnight at 37°C in an incubator with 5% CO2 and 90% humidity. Compounds were first serially diluted in dimethyl sulfoxide then diluted in LHC-8 media growth media to 2X concentration. Cells were dosed with 15μL of each dose for final concentrations between 0.01 – 300 μM. Cells were incubated with compounds for 24 or 72 hours. Cytotoxicity was determined with Cell Titer Glo Luminescent ATP Assay (Promega, catalog #G7573) according to the manufacturer’s instructions. Tamoxifen (Sigma, catalog #BC9353476) was used as a positive control. levels at each dose were normalized to that of cells dosed with dimethyl sulfoxide vehicle alone and IC50 values were calculated from non-linear regression fits of dose-response curves plotted

[7] = molecular target: T2, hERG potassium channels (KCNH2, expressed in HEK293 cells) (Homo sapiens, UniProt Q12809); assay: hERG inhibition; type: cell-based; settings: supplement
T2 construct: expressed in transfected cells
T2 sequence (Q12809 whole entry): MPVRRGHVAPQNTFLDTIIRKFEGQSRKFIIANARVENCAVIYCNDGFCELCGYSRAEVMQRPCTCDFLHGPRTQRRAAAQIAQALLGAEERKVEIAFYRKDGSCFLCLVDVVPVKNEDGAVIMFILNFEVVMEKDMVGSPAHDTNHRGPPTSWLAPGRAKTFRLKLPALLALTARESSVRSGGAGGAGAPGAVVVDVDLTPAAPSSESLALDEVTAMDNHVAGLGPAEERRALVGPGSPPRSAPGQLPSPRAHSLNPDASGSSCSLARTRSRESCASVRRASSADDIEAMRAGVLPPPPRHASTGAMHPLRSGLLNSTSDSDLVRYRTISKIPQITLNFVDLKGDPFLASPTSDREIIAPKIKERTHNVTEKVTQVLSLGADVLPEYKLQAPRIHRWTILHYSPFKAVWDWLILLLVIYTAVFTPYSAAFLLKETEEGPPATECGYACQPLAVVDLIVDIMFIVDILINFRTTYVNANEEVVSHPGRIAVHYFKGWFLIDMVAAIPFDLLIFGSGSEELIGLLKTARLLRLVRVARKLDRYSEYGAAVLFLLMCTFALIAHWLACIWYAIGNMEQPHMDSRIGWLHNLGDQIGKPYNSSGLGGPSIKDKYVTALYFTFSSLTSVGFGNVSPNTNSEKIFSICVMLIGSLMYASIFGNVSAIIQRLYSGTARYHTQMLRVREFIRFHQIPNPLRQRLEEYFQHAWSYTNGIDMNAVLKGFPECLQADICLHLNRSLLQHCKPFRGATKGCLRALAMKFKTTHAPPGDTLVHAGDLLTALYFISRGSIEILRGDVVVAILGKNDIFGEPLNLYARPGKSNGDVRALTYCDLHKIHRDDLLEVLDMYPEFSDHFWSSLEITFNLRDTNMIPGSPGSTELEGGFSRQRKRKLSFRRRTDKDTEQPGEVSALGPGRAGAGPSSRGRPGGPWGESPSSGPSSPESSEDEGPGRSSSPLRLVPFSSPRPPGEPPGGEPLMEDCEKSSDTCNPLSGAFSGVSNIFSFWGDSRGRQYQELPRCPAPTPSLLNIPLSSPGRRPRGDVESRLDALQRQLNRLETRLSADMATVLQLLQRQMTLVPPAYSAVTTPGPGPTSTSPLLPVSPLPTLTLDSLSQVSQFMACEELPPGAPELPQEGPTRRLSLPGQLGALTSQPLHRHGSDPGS

[8] = Liver S9 metabolic stability assay, human; type: in vitro ADME; settings: 3 μM, 60 min
Protocol: (§2) Liver S9 Metabolic Stability Assay: Incubations were performed at 37 °C in a Dubnoff Shaking water bath using 2 mL 96-well incubation plates. Rat and human S9 protein concentrations were 0.75 mg/ml and 1.2 mg/ml, respectively. The final concentrations of NADPH, UDPGA, and GSH were 1, 0.5, and 2.5 mM, and the final concentration of PAPS was 0.05 mg/ml. Substrate concentrations were 3µM, incubation time was 60 minutes, and all tests were done in triplicate. The incubation was conducted in 200 mM Tris buffer containing 2 mM magnesium chloride, pH=7.4 and the total incubation volume was 0.5 ml. Samples were analysed via LC-MS/MS and reported as percentage remaining after incubation for 60 minutes. […]

[9] = Liver S9 metabolic stability assay, rat; type: in vitro ADME; settings: 3 μM, 60 min
Protocol: as §2

[10] = read-out: O. gutturosa EC50 μM (SD), ex vivo adult worm motility reduction, SD in brackets
[11] = read-out: O. gutturosa EC50 (uM) motility inhibition, supplement, SD in brackets in the PDF table
[12] = supplement, read-out: measured logD

Structure (SMILES) | Papp A→B [1] | EC50 [2, 10] | EC50 [2, 11] | EC50 ([3]; Onchocerca gutturosa) | logD at 24 h ([4]; pH 7.4, read-out: logD) | logD at 24 h [4, 12] | solubility kinetic at 24 h [5] | IC50 [6] | IC50 [7] | Human S9 metabolic stability [8] | Rat S9 metabolic stability [9] | EC50 [3] | EC50 ([2]; read-out: O. gutturosa EC50, adult worm motility, bound stated)
CC(=O)N(C)c1cc(C(F)(F)F)cnc1Nc1nc(-c2cc(OC(C)C)ccn2)ns1 [Compound 55, N-(2-((3-(4-Isopropoxypyridin-2-yl)-1,2,4-thiadiazol-5-yl)amino)-5-(trifluoromethyl)pyridin-3-yl)-N-methylacetamide] | 1.7 ×10⁻⁶ cm/s | 0.01 µM | 0.013 µM | 0.04 µM | 3 | 3 | – | – | – | – | – | – | –
CC(C)Oc1cnc(-c2nsc(Nc3ncccc3N3CCCC3=O)n2)cc1C(F)(F)F [Compound 52, 1-(2-((3-(5-Isopropoxy-4-(trifluoromethyl)pyridin-2-yl)-1,2,4-thiadiazol-5-yl)amino)pyridin-3-yl)pyrrolidin-2-one] | 12.9 ×10⁻⁶ cm/s | 1.73 µM | – | 1.95 µM | 2.7 | 2.7 | 9.95 µM (≈ 4.62 µg/mL) | – | – | – | – | – | –
CC(C)Oc1cnc(-c2nsc(Nc3ncccc3N(C)C(=O)C3CC3)n2)cc1C(F)(F)F [Compound 49, N-(2-((3-(5-Isopropoxy-4-(trifluoromethyl)pyridin-2-yl)-1,2,4-thiadiazol-5-yl)amino)pyridine-3-yl)-N-methylcyclopropanecarboxamide] | 8.8 ×10⁻⁶ cm/s | 1.11 µM | – | 3.7 µM | 3.63 | 3.63 | 2.67 µM (≈ 1.28 µg/mL) | 18300 nM | > 30000 nM | – | – | – | –
Cc1cccnc1Nc1nc(-c2ccc(C(=O)N(C)C)cn2)ns1 [Compound 18, N,N-Dimethyl-6-(5-((3-methylpyridin-2-yl)amino)-1,2,4-thiadiazol-3-yl)nicotinamide] | – | 0.06 µM | 0.062 µM | 0.09 µM | 1.7 | 1.7 | 73.2 µM (≈ 24.9 µg/mL) | – | > 30000 nM | 97 % remaining | 94 % remaining | 0.087 µM | –
Cc1cccnc1Nc1nc(-c2cc(C#N)c(OC(C)C)cn2)ns1 [Compound 15] | – | 1.37 µM | – | 0.71 µM | 2.3 | 2.3 | 0.3 µM (≈ 0.106 µg/mL) | – | > 30000 nM | 100 % remaining | 84 % remaining | – | –
CC(C)Oc1cccnc1-c1nsc(Nc2ncc(C(F)(F)F)cc2C(=O)N(C)C)n1 [Compound 58, 2-[[3-(3-Isopropoxy-2-pyridyl)-1,2,4-thiadiazol-5-yl]amino]-N,N-dimethyl-5-(trifluoromethyl)pyridine-3-carboxamide] | 11.2 ×10⁻⁶ cm/s | 0.62 µM | 0.621 µM | 1.5 µM | 2.15 | 2.15 | 130 µM (≈ 58.9 µg/mL) | – | – | – | – | – | –
Cc1cccnc1Nc1nc(-c2ccc(OC3CCOCC3)cn2)ns1 [Compound 3] | – | 0.03 µM | 0.027 µM | 0.24 µM | – | 2.2 | 7.3 µM (≈ 2.7 µg/mL) | – | 19000 nM | 84 % remaining | 82 % remaining | – | < 0.1 µM
CC(=O)N(C)c1cnc(Nc2nc(-c3ccc(OC(C)C)cn3)ns2)c(C)c1 [Compound 51] | 30.3 ×10⁻⁶ cm/s | 0.49 µM | 0.488 µM | 0.46 µM | 2.2 | 2.2 | 15 µM (≈ 5.98 µg/mL) | – | – | – | – | – | –
